We go through one compound from US20120302629A1, “BIOMARKERS FOR GOSSYPOL CHEMOTHERAPY AND METHODS OF TREATING DISEASE” (THE REGENTS OF THE UNIVERSITY OF MICHIGAN, priority 2009, published 2012).

Each structure is given as a SMILES string.

Common to all, as to assay type: cell-based, human
Test [1] has as its system Puma mRNA in 2LMP cells. Kind of test: Taqman real-time PCR. The settings on record: 10 μm. Here is the method: (§1) Real-Time PCR: Total RNA was extracted by RNA miniprep kit (Sigma) from cells treated with or without of (−)-gossypol. cDNA was synthesized from 2 μg of RNA using cDNA reverse transcription kits (Applied Biosystems). Next, Taqman gene expression assays were performed using Noxa (Hs00560402_ml), Puma (Hs00248075_ml), Mcl-1 (Hs00172036_ml) gene specific primers/probe sets for real-time PCR in a ABI7900HT PCR machine. GAPDH (Hs99999905_ml) was used for normalization. Relative quantitation of mRNA was calculated by comparative cycle threshold (Ct) method.

In test [2] the test system is Noxa mRNA in 2LMP cells. Briefly: Taqman real-time PCR. The settings on record: 10 μm. As to the method: as §1
Test [3] has as its system long form of Mcl-1 mRNA in 2LMP cells. Kind of test: Taqman real-time PCR. The conditions noted are these: 10 μm, 5-10 h time-points. Here is the method:
as §1

For test [4], the system named is 5 breast (MDA-MB-231, MDA-MB-436, MDA-MB-468, BT-549 and MCF-7) and 3 prostate (22Rv1, DU145 and LNCaP) cancer cell lines. Kind of test: Western blot in 8 additional cancer cell lines. The conditions noted are these: treated for 24 h, all 8 cancer cell lines. As to the method:
Western blot assay: Proteins were harvested in RIPA buffer, then electrophoresed on 4-20% gradient SDS-PAGE gels (Invitrogen, Grand Island, N.Y.) and transferred to PVDF membranes. The membranes were blocked in 5% milk and then incubated with specific primary antibody, followed by secondary antibody. The signals were visualized with the chemiluminescent HRP antibody detection reagent (Deville Scientific, Metuchen, N.J.).
A general note: In western blotting, separated proteins are transferred to a membrane and probed.

Test [5] deals with 2LMP cells. Briefly: Apoptosis (Annexin V/PI flow cytometry) after siRNA knock-down. As to the method: (§2) Cell Growth, Cell Death, and Apoptosis: Cell growth inhibition by (−)-gossypol was determined in a water-soluble tetrazolium (WST)-based assay, as described previously (Shangary et al., Proc. Natl. Acad. Sci. USA 105:3933 (2008)). Cell viability was determined by trypan blue due exclusion as described (Shangary et al., Proc. Natl. Acad. Sci. USA 105:3933 (2008)). Experiments were done in triplicate. To examine apoptosis, cells were stained with Annexin V and PI and analyzed by flow cytometery using an Annexin V-FITC staining kit (Roche Applied Science, Indianapolis, Ind.) according to manufacturer's instructions. Briefly, cells were treated and collected by centrifugation, washed with PBS once and then stained with annexinV-FITC and PI for 15 min at room temperature in the dark. Stained cells were analyzed in a FACS caliber flow cytometer. AnnexinV positive cells are considered as apoptotic cells.
(§3) RNA interference: Gene specific double-stranded RNA oligonucleotide targeting Noxa, Puma, c-Myc, HIF1-α, E2F1#2, Bax, Bak, were purchased from Dharmacon RNAi technologies as Sigenome on-targetplus SMARTpool duplex (Lafayette, Colo.). SiRNA of E2F#1 was purchased from Santa Cruz. As a negative control, siRNA against GFP target sequence 5′-[…]-3′ was employed (Qiagen, Valencia, Calif.). Transfections were performed using Lipofectamine RNAiMAX, according to manufacturer's instructions (Invitrogen, Carlsbad, Calif.). (−)-Gossypol was added 24 h after transfection and cells were harvested after 18 h treatment of (−)-gossypol. Three independent knock down experiments were performed for each gene.

In test [6] the test system is PC-3 cells. The description is as above. As to the method:
as §2, §3

`Cc1cc2c(C(C)C)c(O)c(O)c(C=O)c2c(O)c1-c1c(C)cc2c(C(C)C)c(O)c(O)c(C=O)c2c1O` [(−)-gossypol]: the “Puma mRNA increased” value in test [1] (2.5 h time-point) came out at 1.4 fold; in test [1] (5 h time-point), 5.4 fold; in test [1] (7.5 h time-point) it was 5 fold; in test [1] (10 h time-point), 4.3 fold. Besides, the “mRNA levels of Noxa increased” value is recorded as 2.3 fold in test [2] (2.5 h time-point), 9 fold in test [2] (5 h time-point), 24 fold in test [2] (7.5 h time-point) and 37 fold in test [2] (10 h time-point). Also, the “increase of the long form of Mcl-1 mRNA” value in test [3] is reported as “less than 3 fold”. Besides, the “lowest concentration with significant upregulation of Noxa” value in test [4] worked out at 2.5 µM. Moreover, the “apoptosis induction blocked by double knockdown of Bax/Bak” value in test [5] (10 μM, 18 h, Bax and Bak siRNA) is “approximately 70%”. Also, the “cell death induction blocked by knock-down of c-Myc” value in test [5] (10 μM, c-Myc siRNA) was over 70%; in test [6] (10 μM, c-Myc siRNA), over 70%. Moreover, the “apoptosis induction decreased by knock-down of Puma” value in test [5] (18 h, Puma siRNA) was 30-50%. Further, the “apoptosis induction reduced by knock-down of Noxa” value in test [5] (all the concentrations tested, 18 h, Noxa siRNA) is given as over 50%. The “effect of double knockdown of Bax/Bak on apoptosis induction” value in test [6] (18 h, Bax and Bak siRNA) was “no effect”.
